Drawing on patent US20140094462A1, “SONIC HEDGEHOG MODULATORS” (priority 2009, published 2014), this text covers Kd for 17 molecules.

The target in this assay is T1, ShhN protein (Homo sapiens, UniProt Q15465).
T1 construct: auto-cleavage of full length Shh into an active 20 kD N-terminal fragment (ShhN); purchased R&D Systems
Description: Surface Plasmon Resonance (SPR) protein binding assay on immobilized ShhN. Conditions: SPR, Biacore T100, ShhN immobilized on CM4 chip, 25° C., compound 0.78 μM-25 μM; read-out: KD. Here is the method:
Biacore™ T100 (GE Healthcare, Uppsala, Sweden) was used to perform the experiments described herein. Sensor surface preparation and interaction analyses experiments were performed at 25° C.
Control surfaces were prepared similarly without protein derivatization and were utilized as a reference surfaces for compound binding experiments.
Zero concentration blank buffer cycles were included as negative control samples.
Data analysis was carried out using Biacore T100 evaluation software v1.1.1. […] Solvent correction was then applied as described previously.
(In SPR one partner is held on a chip, and binding of the other changes the refractive index at the surface.)

Where only a bound is given, the exact number is not on record here.

T1 sequence (Q15465 24-197 limits assumed, species assumed): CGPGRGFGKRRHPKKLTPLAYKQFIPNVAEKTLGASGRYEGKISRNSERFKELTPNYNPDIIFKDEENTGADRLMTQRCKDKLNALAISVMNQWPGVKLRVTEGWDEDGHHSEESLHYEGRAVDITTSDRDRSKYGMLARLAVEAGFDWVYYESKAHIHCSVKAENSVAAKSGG

For the molecule `O=C(C[C@@H]1C/C=C/CCC(=O)O[C@H](c2ccccc2)CNC1=O)NCCc1ccc(Cl)cc1` [EL], the Kd (usually the constant that tells how readily two partners part at equilibrium) was greater than 100 µM.

For the molecule `C[C@@H]1C[C@H](O)[C@@H](O)CCC(=O)N[C@H](c2ccccc2)COC1=O` [Example BU, (3R,8S,9S,11R)-8,9-dihydroxy-11-methyl-3-phenyl-1-oxa-4-azacyclododecane-5,12-dione], the Kd is 1 to 100 µM. On to `COc1ccccc1[C@@H]1COC(=O)[C@H](CC(=O)NCc2ccc(Cl)cc2)C/C=C/CCC(=O)N1` [Example EY, N-(4-chlorobenzyl)-2-((3R,11S,E)-3-(2-methoxyphenyl)-5,12-dioxo-1-oxa-4-azacyclododec-8-en-11-yl)acetamide], for which the Kd is greater than 100 µM. In the case of `O=C(C[C@@H]1C/C=C/CCC(=O)O[C@H](c2ccccc2)CN(Cc2ccccc2)C1=O)NCc1ccc(Cl)cc1` [EV], the dissociation constant Kd was greater than 100 µM. As to `C[C@H]1[C@@H](c2ccccc2)OC(=O)CC/C=C/C[C@@H](CC(=O)NCCCC(F)(F)F)C(=O)N1C` [Example FA, 2-((2R,3S,6S,E)-3,4-dimethyl-5,12-dioxo-2-phenyl-1-oxa-4-azacyclododec-8-en-6-yl)-N-(4,4,4-trifluorobutyl)acetamide], the Kd is greater than 100 µM.

In the case of `O=C(C[C@@H]1C/C=C/C[C@H](Cc2ccccc2)C(=O)N[C@H](c2ccccc2)COC1=O)NCc1ccc(Cl)cc1` [Example ED, 2-((3R,6R,11S,E)-6-benzyl-5,12-dioxo-3-phenyl-1-oxa-4-azacyclododec-8-en-11-yl)-N-(4-chlorobenzyl)acetamide], the Kd is greater than 100 µM. `CC(C)c1ccc(CNC(=O)C[C@@H]2C/C=C/CCC(=O)O[C@H](c3ccccc3)CNC2=O)cc1` [EJ]: the Kd fell in the range of 1 to 100 µM. As to `O=C(C[C@@H]1C/C=C/CCC(=O)N[C@H](C2CCCCC2)COC1=O)NCc1ccc(Cl)cc1` [FU, N-(4-chlorobenzyl)-2-((3R,11S,E)-3-cyclohexyl-5,12-dioxo-1-oxa-4-azacyclododec-8-en-11-yl)acetamide], the Kd was greater than 100 µM. With `CC(C)(C)OC(=O)C[C@@H]1C/C=C/CCC(=O)N[C@H](c2ccc(Cl)cc2)COC1=O` [FV] the figure was less than 0.1 µM; with `CN1CCN(C(=O)C[C@@H]2C/C=C/CCC(=O)O[C@H](c3ccccc3)CNC2=O)CC1` [ET], 1 to 100 µM. With `COc1ccc(CNC(=O)C[C@@H]2C/C=C/CCC(=O)O[C@H](c3ccccc3)CNC2=O)cc1` [EQ] the figure was 1 to 100 µM; with `O=C(C[C@@H]1C/C=C/CCC(=O)N[C@H](Cc2ccccc2)COC1=O)NCc1ccc(Cl)cc1` [FS, 2-((3R,11S,E)-3-benzyl-5,12-dioxo-1-oxa-4-azacyclododec-8-en-11-yl)-N-(4-chlorobenzyl)acetamide], 1 to 100 µM. With `C[C@@H]1CCCCCC(=O)OC[C@@H]2CCCN2C1=O` [Example BE, (9R,14aS)-9-methyldecahydro-1H-pyrrolo[2,1-c][1,4]oxaazacyclododecine-3,10-dione] the figure was 1 to 100 µM; with `N[C@H]1C/C=C/C[C@@H](CC(=O)NCc2ccc(Cl)cc2)C(=O)NC[C@@H](c2ccccc2)OC1=O` [Example EB, 2-((2R,6S,11S,E)-11-amino-5,12-dioxo-2-phenyl-1-oxa-4-azacyclododec-8-en-6-yl)-N-(4-chlorobenzyl)acetamide], 1 to 100 µM. Consider `C[C@H]1C/C=C\C[C@@H](CC(=O)NCc2ccc(Cl)cc2)C(=O)OC[C@@H](c2ccccc2)NC1=O` [Example EE, N-(4-chlorobenzyl)-2-((3R,6S,11S,Z)-6-methyl-5,12-dioxo-3-phenyl-1-oxa-4-azacyclododec-8-en-11-yl)acetamide], for which the Kd was greater than 100 µM. As to `O=C(C[C@@H]1C/C=C/CCC(=O)O[C@H](c2ccccc2)CNC1=O)NCc1cccc(Cl)c1` [EO], the Kd was greater than 100 µM. With `CC(C)(C)OC(=O)C[C@@H]1C/C=C/CCC(=O)N[C@H](c2ccc(F)cc2)COC1=O` [FX] the figure was less than 0.1 µM.
